Columns and labels:
[1] = target: T1, GPR35 (Homo sapiens, UniProt Q9HC97); assay: Tango β-arrestin translocation gene reporter assay in U2OS-GPR35-bla cells; format: cell-based; design: host or cells: U2OS (Tango U2OS-GPR35-bla); details: for Potency EC50, Tango / EC50: β-arrestin translocation, tested up to 1mM, mean ± S.D.; for Potency EC50, Tango: n = 4; for Efficacy Tango (%zaprinast): normalized to maximal response of zaprinast (100%); for EC50: n = 4, read-out: Potency EC50, Tango
Method: (§1) Tango assays were performed in engineered U2OS-GPR35-bla cell line. This cell line permits an endpoint measurement of the activity of agonists specific to the GPR35 activation-induced β-arrestin translocation. Specifically, 10000 U2OS-GPR35-bla cells per well were seeded in 384-well, black-wall, clear bottom assay plates with low fluorescence background (Corning). After overnight culture, the cells were stimulated with ligands for 5 h at 37 °C under 5% CO2, and then loaded with the cell permeable LiveBLAzer™ fluorescence resonance energy transfer (FRET) B/G substrate. After 2 h incubation the coumarin to fluorescein ratio was measured using Victor 4 plate reader (PerkinElmer, Waltham, MA, USA).
Target sequence in this assay (Q9HC97 whole entry, species assumed): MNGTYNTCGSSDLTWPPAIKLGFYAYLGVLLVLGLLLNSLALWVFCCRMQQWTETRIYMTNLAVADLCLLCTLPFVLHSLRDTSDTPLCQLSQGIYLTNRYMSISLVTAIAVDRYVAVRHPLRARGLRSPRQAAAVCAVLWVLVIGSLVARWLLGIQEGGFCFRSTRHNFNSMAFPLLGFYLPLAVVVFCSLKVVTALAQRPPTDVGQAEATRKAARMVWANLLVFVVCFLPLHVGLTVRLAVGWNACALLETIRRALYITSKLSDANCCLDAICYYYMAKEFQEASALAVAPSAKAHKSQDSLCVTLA

[2] = target: T1, GPR35; assay: DMR agonist assay in native HT-29 cells; format: cell-based; design: label-free DMR assays in both native HT-29 and engineered U2OS-GPR35-bla cells; host or cells: HT-29; details: for Potency EC50, DMR / EC50: mean ± S.D.; for Potency EC50, DMR: n = 4; for Efficacy DMR: maximal DMR amplitude; for EC50: n = 4, read-out: Potency EC50, DMR
Method: (§2) DMR assays were performed using an Epic® system (Corning Inc., Corning, NY, USA). This system records a ligand-induced dynamic mass redistribution (DMR) signal of live cells as a shift in resonant wavelength (in picometer, pm) of a resonant waveguide grating biosensor. The DMR signal obtained is a real-time kinetic response that provides a holistic view of ligand-receptor interaction(s) and its functional consequence in the cells. For HT-29 cells 30,000 cells per well were seeded into 384well Epic® biosensor plates (Corning) and cultured overnight. For U2OS and U2OS-GPR35-bla cells 18,000 cells per well were seeded and cultured overnight. These cells were then washed twice using a plate washer, maintained with Hank’s balanced salt solution (1 × HBSS) and further incubated inside the Epic® system for 1 h. DMR agonist profiling proceeds with a 2-min baseline, followed by compound addition and monitoring the compound-induced responses for about 1 h. […] All DMR signals were background corrected.
Target sequence in this assay (Q9HC97 whole entry): as the sequence (Q9HC97 whole entry, species assumed) above

[3] = target: T1, GPR35; assay: ML-145 inhibition of Tango signals of agonists at a fixed dose in U2OS-GPR35-bla cells; format: cell-based; design: host or cells: U2OS (Tango U2OS-GPR35-bla); details: label = agonist at fixed dose: 10 μM zaprinast, 10 μM YE210, 50 μM gallic acid, 10 μM pyrogallol, 32 μM benserazide, 250 μM 3-methoxycatechol
Method: as §1
Target sequence in this assay (Q9HC97 whole entry, species assumed): as above

[4] = target: T1, GPR35; assay: DMR antagonist assay in HT-29 cells (preincubation with antagonist, then agonist at fixed dose); format: cell-based; design: label-free DMR assays in both native HT-29 and engineered U2OS-GPR35-bla cells; host or cells: HT-29; details: 500 μM catechol; for Blockage of the agonist-induced DMR by ML-145: label = agonist at fixed dose: 64 μM propyl gallate, 200 or 100 μM syringic acid, 16 μM benserazide, 20 μM (+)-taxifolin, 100 μM fenoldopam; for Effect of antagonist on the catechol DMR: label = antagonist
Method: as §2
Target sequence in this assay (Q9HC97 whole entry): as the sequence (Q9HC97 whole entry, species assumed) above

[5] = test system: parental U2OS cells; assay: DMR agonist assay in parental U2OS cells; format: cell-based; details: parental U2OS cells without GPR35
Method: as §2

[6] = target: T1, GPR35; assay: DMR agonist assay in engineered U2OS-GPR35-bla cells; format: cell-based; design: host or cells: U2OS (Tango U2OS-GPR35-bla); details: DMR amplitude at 8min poststimulation; n = 4
Method: as §2
Target sequence in this assay (Q9HC97 whole entry, species assumed): as above

[7] = target: T1, GPR35; details: previously found; cited from earlier work
Target sequence in this assay (Q9HC97 whole entry): as the sequence (Q9HC97 whole entry, species assumed) above

| SMILES | Potency EC50, Tango [1] | Efficacy Tango (%zaprinast) [1] [%zaprinast] | Efficacy DMR [2] [pm] | EC50 [2] [µM] | Blockage of the agonist Tango signal by ML-145 [3] | Blockage of the agonist-induced DMR by ML-145 [4] | also measured |
| --- | --- | --- | --- | --- | --- | --- | --- |
| COc1ccc(C=CC(=O)O)cc1OC [3,4-Dimethoxycinnamic acid, 3,4-dimethoxycinnamic acid] | inactive |  |  |  |  |  | Potency EC50, DMR [2]: inactive |
| COc1cccc(O)c1O [3-Methoxycatechol, 3-methoxycatechol] |  | 41 ± 3 | 219 | 147 ± 15 | dose-dependently blocked |  | EC50 [1]: 80.7 ± 6.3 µM |
| O=C1c2c(O)cc(O)cc2O[C@H](c2ccc(O)c(O)c2)[C@H]1O [(+)-Taxifolin, (+)-taxifolin] | weak | >8 | 170 | 6.6 ± 0.5 |  | completely blocked |  |
| Oc1cc(O)c2c(c1)O[C@@H](c1ccc(O)c(O)c1)[C@H](O)C2 [(−)-Catechin, (−)-catechin] | inactive |  |  |  |  |  | Potency EC50, DMR [2]: inactive |
| NC(CO)C(=O)NNCc1ccc(O)c(O)c1O (stereo not drawn) [Benserazide] |  | 48 ± 4 | 296 | 11 ± 0.9 | dose-dependently blocked | partially blocked | EC50 [1]: 7.5 ± 0.6 µM; DMR activity in the parental U2OS cells [5]: inactive; EC50 [6]: 1 ± 0.13 µM |
| Oc1ccccc1O [Catechol, catechol] | inactive | 0 | 207 | 319 ± 27 |  | completely blocked |  |
| Oc1ccc(C2CNCCc3c2cc(O)c(O)c3Cl)cc1 (stereo not drawn) [Fenoldopam, fenoldopam, reference compound] | inactive | 0 | 268 | 206 ± 19 |  | completely blocked |  |
| O=C(O)c1cc(O)c(O)c(O)c1 [Gallic acid, gallic acid, reference compound] |  | 77 ± 5 |  | 1.16 ± 0.09 | dose-dependently blocked |  | EC50 [1]: 12.6 ± 1 µM |
| CCCOC(=O)c1cc(O)c(O)c(O)c1 [Propyl gallate, propyl gallate] | weak | >8 | 210 | 20.2 ± 1.9 |  | completely blocked |  |
| Oc1cccc(O)c1O [Pyrogallol, pyrogallol] |  | 113 ± 5 | 210 | 1.3 ± 0.1 | dose-dependently blocked |  | EC50 [1]: 4.5 ± 0.4 µM |
| COc1cc(C(=O)O)cc(OC)c1O [Syringic acid, syringic acid] | weak | >10 | 151 | 147 ± 23 |  | completely blocked |  |
| Cc1c(C(=O)O)sc2c(Br)csc12 [YE210] |  |  |  |  | dose-dependently blocked |  |  |
| CC(C)NCC(O)COc1ccc(CCOCC2CC2)cc1 (stereo not drawn) [betaxolol, reference compound] |  |  |  |  |  |  | Effect of antagonist on the catechol DMR [4]: neither the β-adrenergic receptor antagonist betaxolol nor α2-adrenergic receptor antagonist yohimbine had any obvious effects |
| O=C(O)/C=C/c1ccc(O)c(O)c1 [caffeic acid] |  |  |  |  |  |  | GPR35 agonist activity (DMR in HT-29), in words [7]: weak partial agonist |
| COC(=O)[C@@H]1[C@H]2C[C@H]3c4[nH]c5ccccc5c4CCN3C[C@@H]2CC[C@@H]1O [yohimbine, reference compound] |  |  |  |  |  |  | Effect of antagonist on the catechol DMR [4]: neither the β-adrenergic receptor antagonist betaxolol nor α2-adrenergic receptor antagonist yohimbine had any obvious effects |
| CCCOc1ccccc1-c1nc2nn[nH]c2c(=O)[nH]1 [zaprinast, Zaprinast] |  |  |  |  | dose-dependently blocked |  | DMR activity in the parental U2OS cells [5]: inactive |

— publication PMC3816702, “The Three Catecholics Benserazide, Catechol and Pyrogallol are GPR35 Agonists” (Pharmaceuticals, 2013)
